Experimental data published in ChEMBL document CHEMBL1201862, “PubChem BioAssay data set” (2004).
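Protocol summary: plate cells (96-well), add compound at 5 concentrations, incubate 48 h, interpolate endpoints linearly. The concentration for 50% growth inhibition is given as GI50.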 The source made the active and inactive calls. Rule as the data show it: active = GI50 up to about 1.1 µM and inactive = higher.

Key:
Experiment in all cases: DTP human tumour cell line panel, 48 h
HT-29 = tested on: HT-29
RXF 393 = tested on: RXF 393
A549 = tested on: A549
SK-MEL-28 = tested on: SK-MEL-28
SW-620 = tested on: SW-620
UACC-257 = tested on: UACC-257
DU-145 = tested on: DU-145
HOP-92 = tested on: HOP-92
SF-295 = tested on: SF-295
SF-539 = tested on: SF-539
OVCAR-4 = tested on: OVCAR-4
NCI-H226 = tested on: NCI-H226
SNB-75 = tested on: SNB-75
K562 = tested on: K562
HCT-116 = tested on: HCT-116
MDA-N = tested on: MDA-N
OVCAR-3 = tested on: OVCAR-3
OVCAR-8 = tested on: OVCAR-8
A498 = tested on: A498
SF-268 = tested on: SF-268
IGROV-1 = tested on: IGROV-1
MDA-MB-231 = tested on: MDA-MB-231
M14 = tested on: M14
ACHN = tested on: ACHN
Malme-3M = tested on: Malme-3M
UACC-62 = tested on: UACC-62
OVCAR-5 = tested on: OVCAR-5
PC-3 = tested on: PC-3
COLO 205 = tested on: COLO 205
SN12C = tested on: SN12C
NCI-H460 = tested on: NCI-H460
NCI-H522 = tested on: NCI-H522
U-251 = tested on: U-251
Hs-578T = tested on: Hs-578T
TK-10 = tested on: TK-10
786-0 = tested on: 786-0
SNB-19 = tested on: SNB-19
BT-549 = tested on: BT-549
UO-31 = tested on: UO-31
MDA-MB-435 = tested on: MDA-MB-435
HOP-62 = tested on: HOP-62
SK-MEL-2 = tested on: SK-MEL-2
EKVX = tested on: EKVX
LOX IMVI = tested on: LOX IMVI
CCRF-CEM = tested on: CCRF-CEM
HCT-15 = tested on: HCT-15
HCC 2998 = tested on: HCC 2998
MCF7 = tested on: MCF7
HL-60 = tested on: HL-60
NCI-H23 = tested on: NCI-H23
SK-MEL-5 = tested on: SK-MEL-5
SK-OV-3 = tested on: SK-OV-3
NCI/ADR-RES = tested on: NCI/ADR-RES
MOLT-4 = tested on: MOLT-4
T47D = tested on: T47D
CAKI-1 = tested on: CAKI-1
SR = tested on: SR
RPMI-8226 = tested on: RPMI-8226
KM12 = tested on: KM12

With CCCCn1c(O)nc2c(N)ncnc21 the GI50 (HT-29) was > 100 µM (inactive), the GI50 (RXF 393) was > 100 µM (inactive) and the GI50 (A549) was > 100 µM (inactive). For the same molecule, the GI50 (SK-MEL-28) was > 100 µM (inactive), the GI50 (SW-620) was > 100 µM (inactive) and the GI50 (UACC-257) was > 100 µM (inactive). The GI50 (DU-145) was > 100 µM (inactive), the GI50 (HOP-92) was > 100 µM (inactive) and the GI50 (SF-295) was > 100 µM (inactive). For the same molecule, the GI50 (SF-539) was > 100 µM (inactive), the GI50 (OVCAR-4) was > 100 µM (inactive) and the GI50 (NCI-H226) was > 100 µM (inactive). For the same molecule, the GI50 (SNB-75) was > 100 µM (inactive), the GI50 (K562) was > 100 µM (inactive) and the GI50 (HCT-116) was > 100 µM (inactive). The GI50 (MDA-N) was > 100 µM (inactive), the GI50 (OVCAR-3) was > 100 µM (inactive) and the GI50 (OVCAR-8) was > 100 µM (inactive). The GI50 (A498) was > 100 µM (inactive), the GI50 (SF-268) was > 100 µM (inactive) and the GI50 (IGROV-1) was > 100 µM (inactive). The GI50 (MDA-MB-231) was > 100 µM (inactive), the GI50 (M14) was > 100 µM (inactive) and the GI50 (ACHN) was > 100 µM (inactive). The GI50 (Malme-3M) was > 100 µM (inactive), the GI50 (UACC-62) was > 100 µM (inactive) and the GI50 (OVCAR-5) was > 100 µM (inactive). For the same molecule, the GI50 (PC-3) was > 100 µM (inactive), the GI50 (COLO 205) was > 100 µM (inactive) and the GI50 (SN12C) was > 100 µM (inactive). For the same molecule, the GI50 (NCI-H460) was > 100 µM (inactive), the GI50 (NCI-H522) was > 100 µM (inactive) and the GI50 (U-251) was > 100 µM (inactive). The GI50 (Hs-578T) was > 100 µM (inactive), the GI50 (TK-10) was > 100 µM (inactive) and the GI50 (786-0) was > 100 µM (inactive). For the same molecule, the GI50 (SNB-19) was > 100 µM (inactive), the GI50 (BT-549) was > 100 µM (inactive) and the GI50 (UO-31) was > 100 µM (inactive). For the same molecule, the GI50 (MDA-MB-435) was > 100 µM (inactive), the GI50 (HOP-62) was > 100 µM (inactive) and the GI50 (SK-MEL-2) was > 100 µM (inactive). The GI50 (EKVX) was 92.9 µM (inactive), the GI50 (LOX IMVI) was > 100 µM (inactive) and the GI50 (CCRF-CEM) was > 100 µM (inactive). The GI50 (HCT-15) was > 100 µM, the GI50 (HCC 2998) was > 100 µM (inactive) and the GI50 (MCF7) was > 100 µM (inactive). The GI50 (HL-60) was > 100 µM (inactive), the GI50 (NCI-H23) was > 100 µM (inactive) and the GI50 (SK-MEL-5) was > 100 µM (inactive). The GI50 (SK-OV-3) was > 100 µM (inactive) and the GI50 (NCI/ADR-RES) was > 100 µM (inactive).
In the case of COC(=O)[C@](NC(=O)OCc1ccccc1)([C@@H](C)[S+]([O-])c1ccc(C)cc1)C(F)(F)F (stereo partly drawn), the GI50 (HT-29) is reported as 24.8 µM (inactive), the GI50 (RXF 393) is reported as 20 µM (inactive) and the GI50 (A549) is reported as 29.9 µM (inactive). For the same molecule, the GI50 (SK-MEL-28) was 62.7 µM (inactive), the GI50 (SW-620) was 53.2 µM (inactive) and the GI50 (UACC-257) was 24.8 µM (inactive). The GI50 (DU-145) was 38.2 µM (inactive), the GI50 (HOP-92) was 26.9 µM (inactive) and the GI50 (SF-295) was 32.7 µM (inactive). For the same molecule, the GI50 (OVCAR-4) was 20.8 µM (inactive), the GI50 (NCI-H226) was 35.2 µM (inactive) and the GI50 (SNB-75) was 36.4 µM (inactive). For the same molecule, the GI50 (K562) was 34.4 µM (inactive), the GI50 (HCT-116) was 42.1 µM (inactive) and the GI50 (OVCAR-3) was 43.7 µM (inactive). For the same molecule, the GI50 (MOLT-4) was 18.7 µM (inactive), the GI50 (T47D) was 35.8 µM (inactive) and the GI50 (OVCAR-8) was 35.2 µM (inactive). For the same molecule, the GI50 (A498) was 31.4 µM (inactive), the GI50 (SF-268) was 41.1 µM (inactive) and the GI50 (IGROV-1) was 24.6 µM (inactive). For the same molecule, the GI50 (MDA-MB-231) was 59.6 µM (inactive), the GI50 (M14) was 48.2 µM (inactive) and the GI50 (ACHN) was 39.6 µM (inactive). The GI50 (Malme-3M) was 33 µM (inactive), the GI50 (UACC-62) was 37.3 µM (inactive) and the GI50 (OVCAR-5) was > 100 µM (inactive). For the same molecule, the GI50 (PC-3) was 27.9 µM (inactive), the GI50 (COLO 205) was 25.8 µM (inactive) and the GI50 (NCI-H460) was 29 µM (inactive). The GI50 (CAKI-1) was 41 µM (inactive), the GI50 (NCI-H522) was 24.6 µM (inactive) and the GI50 (U-251) was 36.8 µM (inactive). The GI50 (Hs-578T) was 58.9 µM (inactive), the GI50 (TK-10) was 21.5 µM (inactive) and the GI50 (786-0) was 52.2 µM (inactive). For the same molecule, the GI50 (SNB-19) was 43 µM (inactive), the GI50 (BT-549) was 22.4 µM (inactive) and the GI50 (UO-31) was 27.7 µM (inactive). The GI50 (MDA-MB-435) was 33.7 µM (inactive), the GI50 (SR) was 22.9 µM (inactive) and the GI50 (HOP-62) was > 100 µM (inactive). The GI50 (SK-MEL-2) was 19.5 µM (inactive), the GI50 (EKVX) was 29.2 µM (inactive) and the GI50 (LOX IMVI) was 33.7 µM (inactive). The GI50 (CCRF-CEM) was 22.8 µM (inactive), the GI50 (HCT-15) was 34.7 µM and the GI50 (RPMI-8226) was 26.5 µM (inactive). For the same molecule, the GI50 (HCC 2998) was 32.6 µM (inactive), the GI50 (HL-60) was 17 µM (inactive) and the GI50 (NCI-H23) was 32.1 µM (inactive). The GI50 (SK-MEL-5) was 16.4 µM (inactive), the GI50 (SK-OV-3) was 53.1 µM (inactive) and the GI50 (NCI/ADR-RES) was 28.7 µM (inactive). The GI50 (KM12) was 29.3 µM (inactive).
